The values that follow come from publication PMC12715762, “Discovery of VU6052254: A Novel, Potent M1 Positive Allosteric Modulator” (ACS Chemical Neuroscience, 2025).

Data set [1] concerns CV ion channels. Put plainly: CV ion channel EP panel. In kind it is cell-based. The settings on record: result in words.
Data set [2] relates to GABAA, Flunitrazepam, Central. Put plainly: Eurofins radioligand binding. The settings on record: Rat.
Data set [3] has as its system rats. Put plainly: 14-day rat toxicology and toxicokinetic study. It is filed as in vivo. To be noted: for cholinergic/SLUDGE adverse effects in 14-day rat study: 30 and 300 mg/kg PO; for change in serum creatinine concentration: males. How it is done: (§1) PAM 7, after a 250 g scale-up, advanced into 14-day rat toxicology studies, with vehicle (PEG-400), 30 mg/kg PO and 300 mg/kg PO cohorts, N = 6 per sex per cohort. […] Higher serum creatinine concentrations were however noted in males at both dose levels (+100% at 30 mg/kg/day and +300% at 300 mg/kg/day). […] Based on the observations of correlative clinical and anatomic kidney toxicity findings in an exploratory 14-day toxicity and toxicokinetics rat study, in conjunction with uncertain margins to projected systemic human therapeutic efficacy and CYP3A4 induction concerns, the development of PAM 7 was discontinued.

Data set [4] in a line: 14-day rat toxicology and toxicokinetic study. In kind it is in vivo. The settings on record: both sexes, rat, plasma, po, PEG-400, rat. How it is done: as §1
The target of data set [5] is Platelet Activating Factor (PAF) (Homo sapiens, UniProt P25105). Put plainly: Eurofins radioligand binding.
Platelet Activating Factor (PAF), sequence (P25105 whole entry): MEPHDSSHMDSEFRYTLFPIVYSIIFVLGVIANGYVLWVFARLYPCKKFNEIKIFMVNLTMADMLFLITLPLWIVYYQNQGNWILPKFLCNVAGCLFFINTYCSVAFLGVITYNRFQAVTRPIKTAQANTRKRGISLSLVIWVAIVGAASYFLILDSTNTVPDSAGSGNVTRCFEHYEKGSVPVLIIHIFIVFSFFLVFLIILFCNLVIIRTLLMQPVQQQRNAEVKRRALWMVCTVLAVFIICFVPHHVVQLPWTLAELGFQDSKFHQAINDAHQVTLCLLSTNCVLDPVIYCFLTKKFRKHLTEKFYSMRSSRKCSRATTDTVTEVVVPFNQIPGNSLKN
Where [6] appears, read: 300 mg/kg, Day 14, 300 mg/kg PO.

Regarding `Cn1cc2c(-c3cc(F)c(CN4Cc5ncccc5C4=O)c(F)c3)ccc(C(C)(C)O)c2n1` [compound 7], the “activity in CV ion channel EP panel” value in data set [1] is “no significant activities”. Also, the % Inhibition (commonly the percentage by which the read-out fell short of the control) at 10 µM in data set [2] is 4%. The “microscopic pathology of kidney” value in data set [3] (300 mg/kg/day, result in words) was “pyknotic cells were also seen in collecting tubules, and less extensively, in the renal papilla”. The “cholinergic/SLUDGE adverse effects in 14-day rat study” value is “No cholinergic/SLUDGE adverse effects were observed” in data set [3] (result in words) and “no cholinergic adverse effects” in data set [3] (result in words, listed as VU6052254). For the same molecule, the “microscopic pathology of renal cortex and medulla” value in data set [3] (both dose levels, result in words) was “dose-related increase in number of pyknotic cells in the lumen of descending tubules/proximal collecting tubules”. Besides, the “total plasma concentration relative to the plasma concentration at MED in the CFC assay (0.3 mg/kg PO)” value in data set [3] (first of the two printed values (30 mg/kg cohort implied)) worked out at 125 x; in data set [3] (second of the two printed values (300 mg/kg cohort implied)), 227 x. Moreover, the fibrinogen concentration result in data set [3] (males administered 300 mg/kg, result in words) is “minimally higher fibrinogen concentration”. Besides, the hematology test results in data set [3] (males administered up to 30 mg/kg, result in words) is “no PAM 7-related effects noted in hematology test results”. Moreover, the “change in serum creatinine concentration” value in data set [3] (30 mg/kg/day) is on record as “+100%”; in data set [3] (300 mg/kg/day), “+300%”. In addition, in data set [3] (result in words), the “organ weights or histology” value was “no gross changes on organ weights or histology”. The AUC(0-t) (usually the area under the concentration-time curve up to a stated or last time point) in data set [4] (30 mg/kg, Day 1, 30 mg/kg PO) turned out to be 224 µM·h; in data set [4] (30 mg/kg, Day 14, 30 mg/kg PO), 107 µM·h; in data set [4] (300 mg/kg, Day 1, 300 mg/kg PO), 758 µM·h; in data set [4] (setting [6]), 909 µM·h. Besides, the Cmax (commonly the highest concentration seen after dosing) in data set [4] (30 mg/kg, Day 1, 30 mg/kg PO) stood at 20.9 µM; in data set [4] (30 mg/kg, Day 14, 30 mg/kg PO) it was 10 µM; in data set [4] (300 mg/kg, Day 1, 300 mg/kg PO), 37.9 µM; in data set [4] (setting [6]), 52.9 µM. For the same molecule, the inhibition – broadly, how much of the control response was suppressed – at 10 µM in data set [5] is 1%.
